Reference: ChEMBL document CHEMBL2021903, “3-Deoxy-3,4-dehydro analogs of XM462. Preparation and activity on sphingolipid metabolism and cell fate” (Bioorg Med Chem, 2012)
Active and inactive are the calls of the source. The rule behind the calls is not given here.

What was measured:
[1] = biological target: T1, Sphingolipid delta(4)-desaturase DES1 (Homo sapiens, UniProt O15121); test: Inhibition of Des1 in human HCT116 cells assessed as formation of CerC6NBD from dhCerC6NBD after 4 hrs by HPLC-FD analysis
T1 sequence (O15121 whole entry): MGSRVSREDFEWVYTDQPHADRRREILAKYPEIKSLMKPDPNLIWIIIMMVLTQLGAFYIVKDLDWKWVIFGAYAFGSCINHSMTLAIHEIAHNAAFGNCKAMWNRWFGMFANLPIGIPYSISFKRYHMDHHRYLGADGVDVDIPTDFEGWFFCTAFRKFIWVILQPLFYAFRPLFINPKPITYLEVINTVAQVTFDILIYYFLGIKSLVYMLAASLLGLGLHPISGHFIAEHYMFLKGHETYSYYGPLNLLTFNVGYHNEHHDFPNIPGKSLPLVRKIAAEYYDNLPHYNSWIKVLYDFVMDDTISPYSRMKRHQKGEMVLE

[2] = biological target: T2, Sphingomyelin phosphodiesterase (Homo sapiens) (UniProt P17405); test: Inhibition of aSMase expressed in human A549 cells using 6-hexadecanoylamino-4-methylumbelliferylphosphorylcholine as substrate at 10 uM after 2 hrs by spectrophotometry; format: cell-based
T2 sequence (whole entry): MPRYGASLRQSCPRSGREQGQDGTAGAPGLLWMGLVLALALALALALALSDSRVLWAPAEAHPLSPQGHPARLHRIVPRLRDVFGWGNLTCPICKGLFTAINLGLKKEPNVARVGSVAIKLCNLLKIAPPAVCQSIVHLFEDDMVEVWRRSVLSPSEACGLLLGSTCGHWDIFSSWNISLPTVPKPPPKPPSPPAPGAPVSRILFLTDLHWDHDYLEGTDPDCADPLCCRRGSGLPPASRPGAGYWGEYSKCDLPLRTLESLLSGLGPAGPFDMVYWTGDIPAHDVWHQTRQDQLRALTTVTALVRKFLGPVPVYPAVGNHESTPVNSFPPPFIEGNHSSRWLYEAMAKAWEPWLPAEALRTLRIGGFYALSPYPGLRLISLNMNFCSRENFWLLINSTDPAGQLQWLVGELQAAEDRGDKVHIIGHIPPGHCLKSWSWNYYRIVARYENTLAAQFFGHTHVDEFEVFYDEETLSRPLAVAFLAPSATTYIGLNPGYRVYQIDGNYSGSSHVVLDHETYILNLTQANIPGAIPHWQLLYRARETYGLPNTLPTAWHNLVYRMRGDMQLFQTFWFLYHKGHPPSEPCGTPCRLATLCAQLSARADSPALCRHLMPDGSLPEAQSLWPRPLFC

[3] = biological target: T1, Sphingolipid delta(4)-desaturase DES1; test: Inhibition of Des1 in human A549 cells assessed as formation of CerC6NBD from dhCerC6NBD after 4 hrs by HPLC-FD analysis
[4] = biological target: T3, Lysosomal acid glucosylceramidase (Homo sapiens) (UniProt P04062); test: Inhibition of glucocerebrosidase in human A549 cells using 4-methylumbelliferyl beta-D-glucoside as substrate at 10 uM after 45 mins by spectrophotometry; format: cell-based
T3 sequence (whole entry): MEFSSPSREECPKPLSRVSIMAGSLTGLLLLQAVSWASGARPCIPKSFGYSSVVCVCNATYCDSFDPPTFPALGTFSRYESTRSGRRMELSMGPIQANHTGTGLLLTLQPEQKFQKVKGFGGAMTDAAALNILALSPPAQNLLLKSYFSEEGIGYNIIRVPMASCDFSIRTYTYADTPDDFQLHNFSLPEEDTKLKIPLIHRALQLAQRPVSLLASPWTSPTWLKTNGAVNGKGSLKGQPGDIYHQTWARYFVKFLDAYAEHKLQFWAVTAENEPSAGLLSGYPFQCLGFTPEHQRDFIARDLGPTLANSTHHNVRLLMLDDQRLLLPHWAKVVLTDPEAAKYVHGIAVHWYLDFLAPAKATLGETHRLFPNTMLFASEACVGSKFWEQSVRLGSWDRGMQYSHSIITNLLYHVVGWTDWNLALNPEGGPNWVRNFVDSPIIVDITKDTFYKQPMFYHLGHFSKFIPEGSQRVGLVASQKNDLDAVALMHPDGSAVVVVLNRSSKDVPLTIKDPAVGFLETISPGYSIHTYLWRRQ

[5] = biological target: T3, Lysosomal acid glucosylceramidase (Homo sapiens); test: Inhibition of glucocerebrosidase in human A549 cells using 4-methylumbelliferyl beta-D-glucoside as substrate at 40 uM after 45 mins by spectrophotometry; format: cell-based
[6] = biological target: T2, Sphingomyelin phosphodiesterase (Homo sapiens); test: Inhibition of aSMase expressed in human A549 cells using 6-hexadecanoylamino-4-methylumbelliferylphosphorylcholine as substrate at 40 uM after 2 hrs by spectrophotometry; format: cell-based
[7] = biological target: T2, Sphingomyelin phosphodiesterase (Homo sapiens); test: Inhibition of aSMase expressed in human A549 cells using 6-hexadecanoylamino-4-methylumbelliferylphosphorylcholine as substrate at 20 uM after 2 hrs by spectrophotometry; format: cell-based
[8] = biological target: T3, Lysosomal acid glucosylceramidase (Homo sapiens); test: Inhibition of glucocerebrosidase in human A549 cells using 4-methylumbelliferyl beta-D-glucoside as substrate at 20 uM after 45 mins by spectrophotometry; format: cell-based

CCCCCCCCCCCCCS/C=C/[C@H](CO)NC(=O)CCCCCCC
IC50 [1]: 18.8 µM | inhibition [2]: inactive | IC50 [3]: 18.1 µM | inhibition [4]: inactive

CCCCCCCCCCCCCS/C=C/[C@H](CO)NC(=O)c1ccc(C(C)(C)C)cc1
inhibition [5]: inactive | inhibition [6]: inactive

CCCCCCCCCCCCCS/C=C/[C@H](CO)NC(=O)C(C)(C)C
inhibition [7]: inactive | inhibition [8]: inactive
